According to patent US10765128B2, “Composition for prevention or treatment of metabolic syndrome or for antioxidation containing black bean leaf extracts and flavonol glysosides isolated therefrom as active ingredients” (KOREA RESEARCH INSTITUTE OF BIOSCIENCE AND BIOTECHNOLOGY, priority 2015, dated 2020):
Like-named read-outs stand apart in the source and are kept apart here.

How the values were obtained:
MIN6 β-cells = assay: insulin secretion in 30 mM glucose-induced MIN6 β-cells (ELISA insulin kit); assay type: cell-based, mouse; conditions: for activation at 100 µM: Mus musculus, MIN6, 0.5 h, sample concentration 100 μM, read-out: Increase (%) in Insulin Secretion Amount in 30 mM Glucose-induced MIN6 Pancreatic β-Cells; for increase in amount of insulin secretion relative to its aglycone: 100 μM, Formula 4 vs quercetin, Formula 7 vs isorhamnetin
Protocol: MIN6 β-cells, which is a mouse pancreatic. β-cell strain, was cultured in DMEM (Lonza Co.) containing 15% FBS (Gibco Co.), 100 units/ml penicillin, and 100 μg/ml streptomycin at 37° C. in a humid 5% CO2 incubator.
MIN6 cells were seeded into a 24-well plate (1×10^5 cells/well) and cultured at 37° C. in a humid 5% CO2 Incubator. In 48 hours later, the medium was first replaced with a DMEM without glucose contained therein, after which a resulting medium was left alone for 60 minutes, such that the black soybean (seoritae) leaf extract and the flavonol glycoside compounds, samples of the present invention, were treated at a certain concentration, into the DMEM with 30 mM glucose contained therein, thus being reacted for 30 minutes. A control group was one without a sample added therein under the same condition as described above, and the insulin secreted into the medium was measured by using an ELISA insulin kit (Alpco diagnostics). […]

[1] = test system: LDL (low-density lipoprotein); assay: LDL-antioxidant activity, Cu2+-induced LDL oxidation (TBARS method); assay type: biochemical; conditions: for LDL Oxidation Inhibitory Activity: sample concentration 100 μM; for IC50: read-out: LDL Oxidation Inhibitory Activity, IC50 value
Excerpt: Med. Chemn. Lett. 14: 2719-2723, 2004). Results thereof were shown in a following Table 9.

[2] = DPPH radical scavenging activity; conditions: sample concentration 50 μM
Protocol: Two mL of a DPP solution was mixed in 1 mL of a test substance solution, after which a resulting mixture was stirred well. An optical density was measured at 517 nm at an interval of 1 minute for 20 minutes by using an UV/Vis spectrophotometer to evaluate the degree of DPPH radical scavenging activity.

human recombinant DPP-IV = molecular target: T1, human recombinant DPP-IV (Homo sapiens, UniProt P27487); assay: DPP-4 inhibitory activity (Ala-Pro-AFC substrate, fluorometer); assay type: biochemical; conditions: for inhibition at 200 µM: read-out: DPP-4 Inhibitory Activity (%); for DPP-4 Inhibitory Activity (%): 200 µM
T1 construct: purchased ProSpec
T1 sequence (P27487 whole entry): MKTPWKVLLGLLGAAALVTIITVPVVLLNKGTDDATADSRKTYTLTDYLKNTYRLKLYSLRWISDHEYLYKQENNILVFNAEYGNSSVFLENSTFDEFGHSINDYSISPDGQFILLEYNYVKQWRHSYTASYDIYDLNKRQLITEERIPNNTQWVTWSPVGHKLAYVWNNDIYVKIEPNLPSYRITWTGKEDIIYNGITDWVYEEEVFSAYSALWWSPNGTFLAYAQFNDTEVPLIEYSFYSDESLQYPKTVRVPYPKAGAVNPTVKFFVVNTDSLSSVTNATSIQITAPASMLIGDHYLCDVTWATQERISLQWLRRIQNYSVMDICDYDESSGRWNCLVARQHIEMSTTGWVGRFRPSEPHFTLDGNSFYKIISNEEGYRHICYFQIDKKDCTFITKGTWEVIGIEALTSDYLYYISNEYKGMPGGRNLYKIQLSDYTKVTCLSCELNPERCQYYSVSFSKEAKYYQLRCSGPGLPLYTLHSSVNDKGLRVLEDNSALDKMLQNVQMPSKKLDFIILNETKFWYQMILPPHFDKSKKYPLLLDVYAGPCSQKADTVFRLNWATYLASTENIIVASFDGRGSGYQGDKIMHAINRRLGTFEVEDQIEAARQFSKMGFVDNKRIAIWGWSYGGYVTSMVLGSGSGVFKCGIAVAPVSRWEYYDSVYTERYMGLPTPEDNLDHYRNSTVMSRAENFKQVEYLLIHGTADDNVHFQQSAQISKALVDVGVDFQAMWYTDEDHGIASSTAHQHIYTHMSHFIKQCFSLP
Protocol: Particularly, the black soybean (Seoritae) leaf extract (100 μg/ml) and the flavonol glycoside compound (200 μM) were dissolved in DMSO to prepare a sample solution. Then, 10 μl of a human recombinant DPP-IV (ProSpec, the U.S.) at a concentration of 1 μg/ml, 78 μl of an incubation buffer solution (50 mM Tris, pH 7.5), and 2 μl of the sample solution prepared above were added to a 96-well microplate, after which 16 μl (a final concentration reached 40 μM) of a substrate alanine-proline-7-amino-4-trifluoromethyl-coumarin (Ala-Pro-AFC) (Enzyme System Product Co.) was added therein, and initiated the reaction. After a reaction progressed at a room temperature for 60 minutes, an amount of AFC, which was a product generated, was measured by using a fluorometer, and identified DPP4 inhibitory activities of the black soybean (Seoritae) leaf extract and the flavonol glycoside compounds by means of Equation 1. […] DPP-4Inhibitory activity (%)=100−(A/A1×100) [Equation 1]
A: AFC concentration of sample
A1: AFC concentration of a negative control group

RAW264.7 cells = assay: ROS accumulation inhibitory activity in LPS-stimulated RAW264.7 cells (DCFH2-DA); assay type: cell-based; conditions: Mus musculus, sample concentration 100 μM, LPS 1 μg/ml
Protocol: A test substance for each concentration was prepared with DMEM, after which the test substance was added by each 100 μL/well therein, thus being reacted for 2 hours. Then, the cells were stimulated for 18 hours with LPS (1 μg/ml) treatment, such that DCFH2-DA (2′,7′-dichlorofluorescein diacetate) was added therein at a final concentration of 15 μM, thus being reacted for 30 minutes. Once a reaction was finished, the cells were washed five times with PBS and which a fluorescence value of DCF was measured on a spectrofluorimeter (480/530, ex/em). (Hayakaya M. et. al., EMBO J., 22: 3356-3866, 2003).

[3] = molecular target: α-glucosidase (EC 3.2.1.20, Baker Yeast) (Saccharomyces cerevisiae, UniProt P53341); assay: α-glucosidase inhibitory activity (nitrophenol method); assay type: biochemical; conditions: sample concentration 100 μM
α-glucosidase (EC 3.2.1.20, Baker Yeast), sequence (P53341 whole entry): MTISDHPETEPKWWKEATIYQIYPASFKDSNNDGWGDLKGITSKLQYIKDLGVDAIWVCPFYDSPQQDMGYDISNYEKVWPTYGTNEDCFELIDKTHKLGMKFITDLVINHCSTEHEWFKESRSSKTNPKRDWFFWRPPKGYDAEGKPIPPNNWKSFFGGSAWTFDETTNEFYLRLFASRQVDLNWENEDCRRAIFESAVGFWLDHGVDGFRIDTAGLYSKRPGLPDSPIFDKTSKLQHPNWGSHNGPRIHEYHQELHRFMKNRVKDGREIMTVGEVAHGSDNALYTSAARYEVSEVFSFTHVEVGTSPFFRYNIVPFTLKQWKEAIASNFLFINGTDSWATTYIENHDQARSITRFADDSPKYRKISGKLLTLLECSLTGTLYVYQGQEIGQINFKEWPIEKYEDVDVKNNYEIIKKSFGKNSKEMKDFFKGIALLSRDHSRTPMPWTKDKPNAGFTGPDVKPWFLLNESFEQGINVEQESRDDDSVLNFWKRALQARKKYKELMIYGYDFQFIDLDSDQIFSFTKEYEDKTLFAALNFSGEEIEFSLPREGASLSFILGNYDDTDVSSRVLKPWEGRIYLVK
Protocol: Specifically, the α-glucosidase inhibitory activity was performed using the nitrophenol method as described by Kato, et al., (J. Med. Chem 48: 2036-2044, 2005) with slight modification. An accumulation amount was measured by the optical density of a chromophoric group of monosaccharides such as glucose, which was generated by hydrolysis of a substrate p-nitrophenyl-[…] (Sigma-Aldrich) by means of α-glucosidase (EC 3.2.1.20, Baker Yeast).
Fifty μl of a buffer solution (70 mM calcium phosphate, pH 6.8), 50 μl of a sample extract or a compound dissolved in 50% DMSO, and 50 μl of α-glucosidase (0.1 unit/ml) were injected into a 96-well plate (NUNC™ Co.) and a substrate (5 mM, p-nitrophenyl-α-D-glucopyranoside) was finally added therein, after which a resulting plate was reacted at 37° C. for 30 minutes, such that 2 M NaOH was added therein to finish a reaction thereof. An amount of a chromophoric group generated was measured at 405 nm by using a microplate reader (ANTHOS™ Co.) to calculate an inhibitory activity.

DPP-4 Inhibitory Activity (%) (human recombinant DPP-IV; sample concentration 200 μM)	DPP-4 Inhibitory Activity (%) (human recombinant DPP-IV; sample concentration 200 μM, listed as quercetin)	SMILES	activation at 100 µM (MIN6 β-cells) [%]	LDL Oxidation Inhibitory Activity [1] [%]	DPPH Radical Scavenging Activity [2] [%]	inhibition at 200 µM (human recombinant DPP-IV) [%]	inhibition at 100 µM (RAW264.7 cells) [%]	IC50 [1] [nM]	inhibition at 100 µM [3] [%]	inhibition at 200 µM (human recombinant DPP-IV; sample concentration 200 μM) [%]	increase in amount of insulin secretion relative to its aglycone (MIN6 β-cells)
		O=c1c(O)c(-c2ccc(O)cc2)oc2cc(O)cc(O)c12 [Kaempferol, reference compound]	≤ 19								
		O=c1c(-c2ccc(O)cc2)coc2cc(O[C@@H]3O[C@H](CO)[C@@H](O)[C@H](O)[C@H]3O)cc(O)c12 [Comparative Example 4, Genistin, reference compound]		41.3	3.4 ± 0.7						
		CC1O[C@@H](OC2C(O)[C@@H](O)C(CO)O[C@H]2Oc2c(-c3ccc(O)c(O)c3)oc3cc(O)cc(O)c3c2=O)C(O)C(O)[C@H]1O (stereo partly drawn) [Formula 5, quercetin 3-O-(2-α-D-rhamnopyranosyl)-β-D-galactopyranoside]	24.3 ± 2.7		85.9 ± 0.4	48.7 ± 0.4	23.7 ± 1.4	400	17.6 ± 2.3		
		COc1cc(-c2oc3cc(O)cc(O)c3c(=O)c2O[C@@H]2OC(CO)[C@H](O)C(O)C2O[C@@H]2OC(CO)[C@@H](O)C(O)C2O)ccc1O (stereo partly drawn) [Formula 6, isorhamnetin 3-O-(2-β-D-glucopyranosyl)-β-D-galactopyranoside]	38.5 ± 3.3	65.7	11.5 ± 0.5		58.8 ± 0.9		26.2 ± 1.7	39.4	
		O=c1c(O[C@@H]2OC(CO)[C@H](O)C(O)C2O[C@@H]2OC(CO)[C@@H](O)C(O)C2O)c(-c2ccc(O)c(O)c2)oc2cc(O)cc(O)c12 (stereo partly drawn) [Formula 3, quercetin 3-O-(2-β-D-glucopyranosyl)-β-D-galactopyranoside]	37.8 ± 5.4		64.8 ± 0.9		44.1 ± 2.8	2100	63.9 ± 0.2	46.7 ± 1.5	
		C[C@@H]1O[C@@H](OC[C@H]2O[C@@H](Oc3c(-c4ccc(O)c(O)c4)oc4cc(O)cc(O)c4c3=O)[C@H](O[C@@H]3O[C@H](CO)[C@@H](O)[C@H](O)[C@H]3O)[C@@H](O)[C@H]2O)[C@H](O)[C@H](O)[C@H]1O [Formula 1, quercetin 3-O-β-D-glucopyranosyl-(1→2)-[α-L-rhamnopyranosyl-(1→6)]-β-D-galactopyranoside]	2.1 ± 0.1		60.3 ± 1.4		37.3 ± 1.8	1800	10.8 ± 0.8	48.4 ± 1	
		O=c1c(O[C@@H]2OC(CO)[C@@H](O)C(O)C2O[C@@H]2OC(CO)[C@@H](O)C(O)C2O)c(-c2ccc(O)c(O)c2)oc2cc(O)cc(O)c12 (stereo partly drawn) [Formula 4, quercetin 3-O-(2-β-D-glucopyranosyl)-β-D-glucopyranoside]	63.6 ± 2.6		59.5 ± 0.5		26 ± 1.9	2300	23.4 ± 2.3	42.5 ± 1.5	twice
		O=c1c(O[C@@H]2OC(CC[C@@H]3OC(O)[C@H](O)C(O)C3O)[C@H](O)C(O)C2O[C@@H]2OC(O)[C@H](O)C(O)C2O)c(-c2ccc(O)cc2)oc2cc(O)cc(O)c12 (some centres unmarked) [Comparative Example 3, reference compound]	≤ 19		4.0 ± 0.6						
		C[C@@H]1O[C@@H](OC[C@H]2O[C@@H](Oc3c(-c4ccc(O)c(O)c4)oc4cc(O)cc(O)c4c3=O)[C@H](O[C@@H]3O[C@H](CO)[C@@H](O)[C@H](O)[C@H]3O)[C@@H](O)[C@@H]2O)[C@H](O)[C@H](O)[C@H]1O [Formula 2, quercetin 3-O-β-D-glucopyranosyl-(1→2)-[α-L-rhamnopyranosyl-(1→6)]-β-D-glucopyranoside]	25.3 ± 3.3		52.0 ± 0.1		31.8 ± 1.7	1900	8.7 ± 2	42.2 ± 0.9	
		O=c1c(O[C@@H]2OC(CC[C@@H]3OC(O)[C@H](O)C(O)C3O)[C@H](O)C(O)C2O[C@@H]2OC(CO)[C@@H](O)C(O)C2O)c(-c2ccc(O)cc2)oc2cc(O)cc(O)c12 (some centres unmarked) [Comparative Example 2, reference compound]		28.4	8.0 ± 0.7						
		COc1cc(-c2oc3cc(O)cc(O)c3c(=O)c2O)ccc1O [Isorhamnetin, reference compound]	26.6 ± 4.1							21.6	
		COc1cc(-c2oc3cc(O)cc(O)c3c(=O)c2O[C@@H]2OC(CO)[C@H](O)C(O)C2O[C@@H]2OC(C)[C@H](O)C(O)C2O)ccc1O (stereo partly drawn) [Formula 7, isorhamnetin 3-O-α-L-rhamnopyranosyl-(1→2)-β-D-galactopyranoside]	106 ± 5.1	55.7	7.5 ± 0.6		21.9 ± 0.6		22.7 ± 0.9	48.1	four
14.5 ± 1.5	145	O=c1c(O)c(-c2ccc(O)c(O)c2)oc2cc(O)cc(O)c12 [Quercetin, reference compound]	35.6 ± 3.4								
